Toxic doses and inconclusive results are not listed.
Test system: L1210 leukemia ip in BDF1 mice, survival T/C
Assay: NCI In Vivo Anticancer Drug Screen. Data for tumor model L1210 Leukemia (intraperitoneal) in B6D2F1 (BDF1) mice
Conditions: endpoint: mean survival time, higher = longer survival
Procedure: The antitumor activity of compounds was measured in mice bearing transplantable tumors. Survival or tumor size were measured and the results are expressed as the measurement made in the treated group (T) divided by the measurement made in the vehicle treated control group (C). The tumor model used in this assay is L1210 Leukemia (intraperitoneal) in B6D2F1 (BDF1) mice

In the case of CC(=O)NCc1cccc([N+](=O)[O-])c1, the T/C (dose: 25.0 mg/kg/injection, schedule: Q01DX005 (ip), vehicle: saline) is reported as 111 % of control and the T/C (dose: 100.0 mg/kg/injection, schedule: Q01DX005 (ip), vehicle: saline) is reported as 102 % of control.
For Cc1c2ccccc2nc(CNC2CCCCC2)[n+]1[O-], the T/C (dose: 12.5 mg/kg/injection, schedule: Q01DX001 (ip), vehicle: saline) was 98 % of control, the T/C (dose: 25.0 mg/kg/injection, schedule: Q01DX001 (ip), vehicle: saline) was 97 % of control and the T/C (dose: 50.0 mg/kg/injection, schedule: Q01DX001 (ip), vehicle: saline) was 90 % of control.
With CNC(=O)c1nc(C)c(C)[nH]c1=O the T/C (dose: 25.0 mg/kg/injection, schedule: Q01DX009 (ip), vehicle: water) was 98 % of control, the T/C (dose: 50.0 mg/kg/injection, schedule: Q01DX009 (ip), vehicle: water) was 96 % of control and the T/C (dose: 100.0 mg/kg/injection, schedule: Q01DX009 (ip), vehicle: water) was 98 % of control. The T/C (dose: 100.0 mg/kg/injection, schedule: Q04DX003 (ip), vehicle: water) was 103 % of control, the T/C (dose: 200.0 mg/kg/injection, schedule: Q01DX009 (ip), vehicle: water) was 89 % of control and the T/C (dose: 200.0 mg/kg/injection, schedule: Q04DX003 (ip), vehicle: water) was 95 % of control.
With CC1=C(Cl)C(=O)C(Cl)=C(Cl)C1=O the T/C (dose: 75.0 mg/kg/injection, schedule: Q01DX001 (ip), vehicle: saline) was 103 % of control.
For C=C(C)C1(CC(C)C)C(=O)NC(=S)NC1=O, the T/C (dose: 9.5 mg/kg/injection, schedule: Q01DX001 (ip), vehicle: other) was 100 % of control, the T/C (dose: 19.0 mg/kg/injection, schedule: Q01DX001 (ip), vehicle: other) was 96 % of control and the T/C (dose: 38.0 mg/kg/injection, schedule: Q01DX001 (ip), vehicle: other) was 96 % of control.
For COc1ccc(OC)c(NC(=O)Nc2cc(C(F)(F)F)ccc2Cl)c1, the T/C (dose: 100.0 mg/kg/injection, schedule: Q01DX009 (ip), vehicle: Klucel (hydroxypropylcellulose) (HPC)) was 104 % of control and the T/C (dose: 400.0 mg/kg/injection, schedule: Q01DX009 (ip), vehicle: Klucel (hydroxypropylcellulose) (HPC)) was 91 % of control.

From PubChem BioAssay AID248 (DTP/NCI, 2004)
